Assay results reported in patent publication US8574547B2, “Photoacoustic probes and methods of imaging” (The Board of Trustees of the Leland Stanford Junior …, priority 2007, dated 2013).

Target: T1, αvβ3 integrin (Homo sapiens, UniProt P05106+P06756)
T1 construct: endogenous in cells
Assay: Targeting ability: imaging inhibition of Alexa488 conjugated αvβ3 integrin antibody binding to cells
Assay type: cell-based
Details: cells incubated 1 hour with substance, then ½ hour with Alexa488 conjugated αvβ3 integrin antibody
Procedure: FIGS. 7(1)-7(4) illustrate digital images of cells that were incubated for 1 hour with PBS (FIG. 7(1)), QSY-21 (FIG. 7(2)), […] (FIG. 7(3)), and […] (FIG. 7(4)). Then the cells were incubated for ½ hour with Alexa488 conjugated αvβ3 integrin antibody.
Targeting ability of the conjugate was tested by imaging inhibition of the avb3 intergrin antibody. Cells were incubated for 1 hour with PBS (FIG. 7(1)), QSY-21 (FIG. 7(2)), RGD-QSY21 (FIG. 7(3)), and RGD (FIG. 7(4)). Then the cells were incubated for ½ hour with Alexa488 conjugated αvβ3 integrin antibody.

T1 sequence (P06756 31-889 limits assumed): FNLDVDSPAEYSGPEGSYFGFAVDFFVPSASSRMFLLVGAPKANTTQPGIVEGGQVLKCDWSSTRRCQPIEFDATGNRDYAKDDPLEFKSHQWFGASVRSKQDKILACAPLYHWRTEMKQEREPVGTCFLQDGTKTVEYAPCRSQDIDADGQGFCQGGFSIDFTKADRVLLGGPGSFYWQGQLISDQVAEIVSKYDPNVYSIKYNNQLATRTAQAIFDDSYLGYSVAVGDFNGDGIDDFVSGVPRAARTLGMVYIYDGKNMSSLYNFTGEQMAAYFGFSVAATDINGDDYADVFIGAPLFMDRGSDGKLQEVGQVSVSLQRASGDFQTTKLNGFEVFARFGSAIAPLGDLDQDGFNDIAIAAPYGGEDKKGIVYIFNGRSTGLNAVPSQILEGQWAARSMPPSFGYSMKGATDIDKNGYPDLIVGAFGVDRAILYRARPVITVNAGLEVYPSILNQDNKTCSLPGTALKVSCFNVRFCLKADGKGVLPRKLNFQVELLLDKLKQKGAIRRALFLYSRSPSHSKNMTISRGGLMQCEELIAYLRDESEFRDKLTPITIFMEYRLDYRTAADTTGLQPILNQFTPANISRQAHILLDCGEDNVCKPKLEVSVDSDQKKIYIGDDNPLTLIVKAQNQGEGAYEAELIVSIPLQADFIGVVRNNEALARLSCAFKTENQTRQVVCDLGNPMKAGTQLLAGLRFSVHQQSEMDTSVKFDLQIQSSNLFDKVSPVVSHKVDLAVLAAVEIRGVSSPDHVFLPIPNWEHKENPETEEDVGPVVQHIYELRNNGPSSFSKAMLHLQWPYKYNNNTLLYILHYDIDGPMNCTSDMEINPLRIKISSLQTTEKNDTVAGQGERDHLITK
T1 sequence (P06756 891-1048 partner limits assumed): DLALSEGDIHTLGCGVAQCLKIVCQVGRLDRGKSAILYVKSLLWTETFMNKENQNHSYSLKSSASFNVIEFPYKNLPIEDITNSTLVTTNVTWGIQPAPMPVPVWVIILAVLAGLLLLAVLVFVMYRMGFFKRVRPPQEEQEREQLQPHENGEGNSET
T1 sequence (P05106 27-788): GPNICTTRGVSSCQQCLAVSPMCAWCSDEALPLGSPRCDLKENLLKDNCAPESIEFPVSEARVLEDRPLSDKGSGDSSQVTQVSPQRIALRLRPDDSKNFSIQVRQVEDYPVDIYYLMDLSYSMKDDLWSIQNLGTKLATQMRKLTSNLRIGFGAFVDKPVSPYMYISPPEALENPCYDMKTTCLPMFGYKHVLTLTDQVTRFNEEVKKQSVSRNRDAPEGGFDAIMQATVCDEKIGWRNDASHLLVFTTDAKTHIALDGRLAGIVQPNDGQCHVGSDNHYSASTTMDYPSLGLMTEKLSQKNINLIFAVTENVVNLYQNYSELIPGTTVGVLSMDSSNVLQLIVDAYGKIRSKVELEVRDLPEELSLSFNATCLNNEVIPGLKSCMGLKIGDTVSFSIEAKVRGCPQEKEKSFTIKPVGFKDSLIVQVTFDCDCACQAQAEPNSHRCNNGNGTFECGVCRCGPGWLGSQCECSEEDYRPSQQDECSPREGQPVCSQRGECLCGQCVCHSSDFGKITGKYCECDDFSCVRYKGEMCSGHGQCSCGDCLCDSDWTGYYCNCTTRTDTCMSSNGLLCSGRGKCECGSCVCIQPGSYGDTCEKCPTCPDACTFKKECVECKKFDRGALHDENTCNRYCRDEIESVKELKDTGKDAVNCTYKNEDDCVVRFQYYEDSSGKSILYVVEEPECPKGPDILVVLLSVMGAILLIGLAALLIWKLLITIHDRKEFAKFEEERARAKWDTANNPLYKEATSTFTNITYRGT

Substance: Arg-Gly-Asp [RGD]
- inhibition of αvβ3 integrin antibody binding: inhibition of antibody binding
